Test results from patent US12077503B2, “Substituted cyclic amides and their use as herbicides” (FMC CORPORATION, priority 2015, dated 2024).

Columns and labels:
Format in all cases: in vivo
[1] = system: pigweed (Amaranthus retroflexus); experiment: Test A preemergence; conditions: Preemergence
[2] = system: giant foxtail (Setaria faberii); experiment: Test A preemergence; conditions: Preemergence
Summary of the method: (§1)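 Seeds sprayed preemergence with a directed soil spray, or plants at 2 to 10 cm height and one- to two-leaf stage sprayed postemergence, with test chemicals in a non-phytotoxic solvent mixture containing surfactant, in loam soil–sand blend. Injury rated visually against untreated controls after about 10 d in greenhouse, 0 (no effect) to 100 (complete control).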

[3] = system: barnyardgrass (Echinochloa crus-galli); experiment: Test A preemergence; conditions: Preemergence
Summary of the method: as §1

[4] = system: ryegrass, Italian (Italian ryegrass, Lolium multiflorum); experiment: Test A preemergence; conditions: Preemergence
Summary of the method: as §1

[5] = system: ragweed (common ragweed, Ambrosia elatior); experiment: Test A preemergence; conditions: Preemergence
Summary of the method: as §1

Kochia (Kochia scoparia) [6] = experiment: Test A preemergence; conditions: Preemergence
Summary of the method: as §1

[7] = system: pigweed (Amaranthus retroflexus); experiment: Test A postemergence
Summary of the method: as §1

[8] = system: wheat (Triticum aestivum); experiment: Test A postemergence
Summary of the method: as §1

[9] = system: giant foxtail (Setaria faberii); experiment: Test A postemergence
Summary of the method: as §1

[10] = system: morningglory (Ipomoea spp.); experiment: Test A postemergence; conditions: Ipomoea, post-emergence, 240 h; 1000 g ai/ha, postemergence; 0 to 100 scale, 0 no effect, 100 complete control; read-out: Plant response rating, Morningglory
Summary of the method: as §1

[11] = system: barnyardgrass (Echinochloa crus-galli); experiment: Test A postemergence
Summary of the method: as §1

[12] = system: ryegrass, Italian (Italian ryegrass, Lolium multiflorum); experiment: Test A postemergence
Summary of the method: as §1

[13] = system: Galium (catchweed bedstraw, Galium aparine); experiment: Test A postemergence
Summary of the method: as §1

[14] = system: ragweed (common ragweed, Ambrosia elatior); experiment: Test A postemergence
Summary of the method: as §1

corn (Zea mays) = experiment: Test A postemergence
Summary of the method: as §1

Kochia (Kochia scoparia) [15] = experiment: Test A postemergence
Summary of the method: as §1

[16] = system: blackgrass (Alopecurus myosuroides); experiment: Test A postemergence
Summary of the method: as §1

[17] = system: sedge, umbrella (small-flower umbrella sedge, Cyperus difformis); experiment: Test C flooded paddy test; conditions: Flood, 0 is no effect, 100 is complete control
Summary of the method: (§2)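 Rice, small-flower umbrella sedge, ducksalad and barnyardgrass at the 2-leaf stage were flooded to 3 cm, and compound was applied into the paddy water. After 13 to 15 d in a greenhouse, plants were rated visually against controls on a 0 (no effect) to 100 (complete control) scale.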

[18] = system: ducksalad (Heteranthera limosa); experiment: Test C flooded paddy test; conditions: Flood, 0 is no effect, 100 is complete control
Summary of the method: as §2

[19] = system: barnyardgrass (Echinochloa crus-galli); experiment: Test C flooded paddy test; conditions: Flood, 0 is no effect, 100 is complete control
Summary of the method: as §2

rice (Oryza sativa) = experiment: Test C flooded paddy test; conditions: Flood, 0 is no effect, 100 is complete control
Summary of the method: as §2

[20] = system: sedge, umbrella (small-flower umbrella sedge, Cyperus difformis); experiment: Test B flooded paddy test; conditions: Flood, 250 g ai/ha; 0 to 100 scale where 0 is no effect and 100 is complete control; 13 to 15 d
Summary of the method: (§3)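 Plants at 2-leaf stage flooded to 3 cm above soil, with compounds applied directly to paddy water and that depth maintained. Plants kept in greenhouse 13–15 d. Visual rating versus controls on a 0 (no effect) to 100 (complete control) scale.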

[21] = system: ducksalad (Heteranthera limosa); experiment: Test B flooded paddy test; conditions: Flood, 250 g ai/ha; 0 to 100 scale where 0 is no effect and 100 is complete control; 13 to 15 d
Summary of the method: as §3

[22] = system: barnyardgrass (Echinochloa crus-galli); experiment: Test B flooded paddy test; conditions: Flood, 250 g ai/ha; 0 to 100 scale where 0 is no effect and 100 is complete control; 13 to 15 d
Summary of the method: as §3

rice (Oryra sativa) = experiment: Test B flooded paddy test; conditions: Flood, 250 g ai/ha; 0 to 100 scale where 0 is no effect and 100 is complete control; 13 to 15 d
Summary of the method: as §3

[23] = 1000 g ai/ha, 0 is no effect, 100 is complete control
[24] = 125 g ai/ha, visual injury after approximately 10 d, 0 to 100 scale where 0 is no effect and 100 is complete control
[25] = 500 g ai/ha, visual injury approx. 10 d
[26] = 125 g ai/ha, postemergence, visual injury rating on 0 to 100 scale (0 no effect, 100 complete control), approx. 10 d
[27] = Postemergence, 500 g ai/ha, 0 to 100 scale where 0 is no effect and 100 is complete control

O=C(CN1C[C@H](c2cc(F)cc(F)c2)[C@@H](C(=O)Nc2cccc(F)c2F)C1=O)c1ccccc1 [Compound 784]
Pigweed plant response rating (0 to 100 scale) [1, 23]: 0
Foxtail, Giant plant response rating (0 to 100 scale) [2, 23]: 90
Barnyardgrass plant response rating (0 to 100 scale) [3, 23]: 80
Ryegrass, Italian plant response rating (0 to 100 scale) [4, 23]: 0
Ragweed plant response rating (0 to 100 scale) [5, 23]: 0
Kochia plant response rating (0 to 100 scale) (Kochia (Kochia scoparia) [6]; [23]): 0
pest or weed control at 1000 g/ha ([7]; Amaranthus retroflexus, post-emergence, 240 h, 1000 g ai/ha, postemergence, 0 to 100 scale, 0 no effect, 100 complete control, read-out: Plant response rating, Pigweed): 0%
plant injury at 1000 g/ha ([8]; Triticum aestivum, post-emergence, 240 h, 1000 g ai/ha, postemergence, 0 to 100 scale, 0 no effect, 100 complete control, read-out: Plant response rating, Wheat): 0%
pest or weed control at 1000 g/ha ([9]; Setaria faberi, post-emergence, 240 h, 1000 g ai/ha, postemergence, 0 to 100 scale, 0 no effect, 100 complete control, read-out: Plant response rating, Foxtail, Giant): 90%
pest or weed control at 1000 g/ha [10]: 0%
pest or weed control at 1000 g/ha ([11]; Echinochloa crus-galli, post-emergence, 240 h, 1000 g ai/ha, postemergence, 0 to 100 scale, 0 no effect, 100 complete control, read-out: Plant response rating, Barnyardgrass): 90%
pest or weed control at 1000 g/ha ([12]; Lolium multiflorum, post-emergence, 240 h, 1000 g ai/ha, postemergence, 0 to 100 scale, 0 no effect, 100 complete control, read-out: Plant response rating, Ryegrass, Italian): 0%
pest or weed control at 1000 g/ha ([13]; Galium, post-emergence, 240 h, 1000 g ai/ha, postemergence, 0 to 100 scale, 0 no effect, 100 complete control, read-out: Plant response rating, Galium): 0%
pest or weed control at 1000 g/ha ([14]; Ambrosia artemisiifolia, post-emergence, 240 h, 1000 g ai/ha, postemergence, 0 to 100 scale, 0 no effect, 100 complete control, read-out: Plant response rating, Ragweed): 0%
Corn plant response rating (crop injury, 0 = no effect, 100 = complete kill) at 1000 g/ha (corn (Zea mays); Zea mays, post-emergence, 240 h, 1000 g ai/ha, postemergence, 0 to 100 scale, 0 no effect, 100 complete control): 0%
pest or weed control at 1000 g/ha (Kochia (Kochia scoparia) [15]; Bassia scoparia, post-emergence, 240 h, 1000 g ai/ha, postemergence, 0 to 100 scale, 0 no effect, 100 complete control, read-out: Plant response rating, Kochia): 0%
pest or weed control at 1000 g/ha ([16]; Alopecurus myosuroides, post-emergence, 240 h, 1000 g ai/ha, postemergence, 0 to 100 scale, 0 no effect, 100 complete control, read-out: Plant response rating, Blackgrass): 20%

O=C1NCC(c2cccc(F)c2F)C1C(=O)Nc1cccc(F)c1F (stereo not drawn) [Compound 487]
Plant response rating (scale of 0 to 100), Sedge, Umbrella ([17]; 31 g ai/ha): 0
Plant response rating (scale of 0 to 100), Sedge, Umbrella ([17]; 62 g ai/ha): 0
Plant response rating (scale of 0 to 100), Sedge, Umbrella ([17]; 125 g ai/ha): 0
Plant response rating (scale of 0 to 100), Sedge, Umbrella ([17]; 250 g ai/ha): 0
Plant response rating (scale of 0 to 100), Ducksalad ([18]; 31 g ai/ha): 30
Plant response rating (scale of 0 to 100), Ducksalad ([18]; 62 g ai/ha): 45
Plant response rating (scale of 0 to 100), Ducksalad ([18]; 125 g ai/ha): 85
Plant response rating (scale of 0 to 100), Ducksalad ([18]; 250 g ai/ha): 100
Plant response rating (scale of 0 to 100), Barnyardgrass ([19]; 31 g ai/ha): 0
Plant response rating (scale of 0 to 100), Barnyardgrass ([19]; 62 g ai/ha): 15
Plant response rating (scale of 0 to 100), Barnyardgrass ([19]; 125 g ai/ha): 20
Plant response rating (scale of 0 to 100), Barnyardgrass ([19]; 250 g ai/ha): 65
Plant response rating (scale of 0 to 100), Rice (rice (Oryza sativa); 31 g ai/ha): 0
Plant response rating (scale of 0 to 100), Rice (rice (Oryza sativa); 62 g ai/ha): 0
Plant response rating (scale of 0 to 100), Rice (rice (Oryza sativa); 125 g ai/ha): 0
Plant response rating (scale of 0 to 100), Rice (rice (Oryza sativa); 250 g ai/ha): 0
Plant response rating, Pigweed [1, 24]: 0
Pigweed plant response rating (0 to 100 scale, 0 is no effect, 100 is complete control) [1, 25]: 30
Plant response rating, Foxtail, Giant [2, 24]: 90
Foxtail, Giant plant response rating (0 to 100 scale, 0 is no effect, 100 is complete control) [2, 25]: 90
Plant response rating, Barnyardgrass [3, 24]: 90
Barnyardgrass plant response rating (0 to 100 scale, 0 is no effect, 100 is complete control) [3, 25]: 90
Plant response rating, Ryegrass, Italian [4, 24]: 20
Ryegrass, Italian plant response rating (0 to 100 scale, 0 is no effect, 100 is complete control) [4, 25]: 40
Plant response rating, Ragweed [5, 24]: 30
Ragweed plant response rating (0 to 100 scale, 0 is no effect, 100 is complete control) [5, 25]: 30
Plant response rating, Kochia (Kochia (Kochia scoparia) [6]; [24]): 30
Kochia plant response rating (0 to 100 scale, 0 is no effect, 100 is complete control) (Kochia (Kochia scoparia) [6]; [25]): 60
Pigweed plant response rating [7, 26]: 0
Plant response rating, Pigweed [7, 27]: 20
Wheat plant response rating [8, 26]: 0
Plant response rating, Wheat [8, 27]: 20
Foxtail, Giant plant response rating [9, 26]: 80
Plant response rating, Foxtail, Giant [9, 27]: 90
Barnyardgrass plant response rating [11, 26]: 80
Plant response rating, Barnyardgrass [11, 27]: 90
Ryegrass, Italian plant response rating [12, 26]: 0
Plant response rating, Ryegrass, Italian [12, 27]: 20
Galium plant response rating [13, 26]: 0
Plant response rating, Galium [13, 27]: 0
Ragweed plant response rating [14, 26]: 0
Plant response rating, Ragweed [14, 27]: 0
Corn plant response rating (corn (Zea mays); [26]): 0
Plant response rating, Corn (corn (Zea mays); [27]): 20
Kochia plant response rating (Kochia (Kochia scoparia) [15]; [26]): 0
Plant response rating, Kochia (Kochia (Kochia scoparia) [15]; [27]): 30
Blackgrass plant response rating [16, 26]: 0
Plant response rating, Blackgrass [16, 27]: 30
Plant response rating, Sedge, Umbrella [20]: 0
Plant response rating, Ducksalad [21]: 95
Plant response rating, Barnyardgrass [22]: 75
Plant response rating, Rice (rice (Oryra sativa)): 0
